Assay results taken from patent publication US12115393B2, “Methods for setting parameters of a neurostimulation device and associated devices” (INSTITUT NATIONAL DE LA SANTE ET DE LA RECHERCHE MEDICALE …, priority 2019, dated 2024).

What was measured:
Type in all cases: in vivo
[1] = tested on: unpredictable chronic mild stress (UCMS) mouse model; experiment: nest-building test in UCMS mice; settings: 15 mg/kg fluoxetine chronically through drinking water from day 7, tested day 38, score max. 5
Procedure: (§1) From day 7 on, mice from the Veh (vehicle) and the Flx (fluoxetine) groups were chronically treated through drinking water respectively with water alone (n=12) or 15 mg/kg fluoxetine (n=12).
(§2) The main cohort of fifty-three mice followed the UCMS regimen from day 0 to day 35, as described previously. Briefly, mice were isolated in 24×11×12 cm cages without environmental enrichment and submitted to daily random socio-environmental stressors including: exposition to another mouse bedding, removal of sawdust, contention and light dark cycle perturbations.
(§3) Pharmacological treatments (15 mg/kg fluoxetine) were given from day 7 on to achieve chronic administration at week 5. The chronic ultrasound neurostimulation treatment was given during the fifth week of the UCMS (stressors: 08:00-12:00 AM, treatment: 02:00 PM). […]
(§4) Behaviors were assessed during the dark phase of the light-dark cycle, i.e., the active, awoken phase for the animals. The effects of ultrasound neurostimulation were assessed against those of the fluoxetine treatment from day 38 to day 43 with 1) the nest-building test, 2) the reward-maze test and 3) the open field task.
1. […] After 5 hours in standard condition, the state of the nest, built in cotton, was scored on a predefined scale. […]

[2] = tested on: unpredictable chronic mild stress (UCMS) mouse model; experiment: reward-maze test in UCMS mice
Procedure: as §1, §2, §3, §4
2. […] The latency to reach the reward and its consumption were measured for up to 5 min.

[3] = tested on: unpredictable chronic mild stress (UCMS) mouse model; experiment: open-field task in UCMS mice; settings: 15 mg/kg fluoxetine in drinking water from day 7, tested day 43, p<0.10
Procedure: as §1, §2
Pharmacological treatments (15 mg/kg fluoxetine) were given from day 7 on to achieve chronic administration at week 5. […]
as §4
3. […] The latency to reach the center area (d=10 cm) and the number of center-crossings were measured for up to 5 min. The movements of the mice were recorded and tracked with the software EthoVision XT (Noldus Information Technology, Netherlands) to generate individual heat maps, color-coded for position frequencies over the duration of the test.

SMILES: CNCCC(Oc1ccc(C(F)(F)F)cc1)c1ccccc1 (stereo not shown) [fluoxetine]
- nest-building score (ability to build a nest within 5 hours) [1]: no effect
- consumption of the reward ([2]; 15 mg/kg fluoxetine in drinking water from day 7, tested day 40, Veh vs Flx p=0.033): modified
- latency to travel across the apparatus and reach the food reward ([2]; 15 mg/kg fluoxetine in drinking water from day 7, tested day 40, Veh vs Flx p=0.042): decreased three-fold
- number of center-crossings [3]: did not significantly affect
